These results are taken from patent US7135466B2 (Kirin Beer Kabushiki Kaisha, priority 1999, dated 2006).

Assay [1] has as its target T1, PDGF-Ra (Homo sapiens, UniProt P16234).
T1 construct: host or cells: G-292 human osteosarcoma cells
The experiment in a line: Inhibitory activity against PDGF-Ra phosphorylation by PDGF-AA stimulation using G292. It counts as cell-based. To be noted: Pharmacological Test Example 1; > means inhibition at indicated concentration not more than 50%, < and << not less than 50%; read-out: PDGF (E) IC50. Put shortly:
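Phosphorylated PDGF-Ra was measured colorimetrically (450 nm) after tyrosine-phosphorylated proteins from G-292 lysates were bound to PY-20-coated wells and detected with anti-PDGF-Ra antibody. Compound preincubation lasted 1 hr, followed by 50 ng/ml PDGF-AA for 5 min.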

In assay [2] the target is T2, c-kit (Homo sapiens, UniProt P10721).
T2 construct: MO7e (human megakaryocytic leukemia cell line) which had been arrested for 20 hr; endogenous in cells; host or cells: MO7e human megakaryocytic leukemia cell line
T2 sequence (P10721 26-976): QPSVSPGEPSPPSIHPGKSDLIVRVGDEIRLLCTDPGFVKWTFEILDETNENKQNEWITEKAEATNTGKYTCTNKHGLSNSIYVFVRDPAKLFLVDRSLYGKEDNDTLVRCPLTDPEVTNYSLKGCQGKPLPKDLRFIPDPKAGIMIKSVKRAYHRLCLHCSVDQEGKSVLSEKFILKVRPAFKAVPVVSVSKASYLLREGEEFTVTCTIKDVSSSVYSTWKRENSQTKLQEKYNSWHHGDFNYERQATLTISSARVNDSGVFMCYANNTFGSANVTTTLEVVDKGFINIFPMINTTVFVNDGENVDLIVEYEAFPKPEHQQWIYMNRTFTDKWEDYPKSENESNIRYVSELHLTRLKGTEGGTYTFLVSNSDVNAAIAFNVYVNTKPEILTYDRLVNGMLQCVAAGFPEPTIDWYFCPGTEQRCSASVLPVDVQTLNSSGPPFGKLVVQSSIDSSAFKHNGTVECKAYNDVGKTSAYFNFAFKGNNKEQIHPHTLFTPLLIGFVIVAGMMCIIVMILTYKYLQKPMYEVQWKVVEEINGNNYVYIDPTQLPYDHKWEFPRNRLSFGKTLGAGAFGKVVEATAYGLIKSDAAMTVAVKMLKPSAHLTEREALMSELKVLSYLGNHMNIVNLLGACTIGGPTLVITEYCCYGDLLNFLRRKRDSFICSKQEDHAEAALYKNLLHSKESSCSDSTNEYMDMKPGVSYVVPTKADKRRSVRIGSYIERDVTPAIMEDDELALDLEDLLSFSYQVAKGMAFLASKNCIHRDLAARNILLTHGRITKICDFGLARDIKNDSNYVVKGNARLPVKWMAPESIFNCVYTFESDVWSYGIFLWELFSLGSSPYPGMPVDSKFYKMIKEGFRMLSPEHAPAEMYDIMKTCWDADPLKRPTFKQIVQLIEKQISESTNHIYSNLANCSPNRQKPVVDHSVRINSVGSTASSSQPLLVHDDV
Kind of assay: Inhibitory activity against c-kit autophosphorylation (MO7e cells, h-SCF). It counts as cell-based. The following applies: for inhibition at 1 µM: Mo7e, figure in parentheses in −( ), at 1000 nM; for IC50: MO7e cells, h-SCF 50 ng/ml, read-out: c-kit IC50. Put shortly: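 In this cellular autophosphorylation assay, compound-treated MO7e cells (1 hr) were challenged with human stem cell factor at 50 ng/ml for 5 min; detection relied on PY-20 capture and anti-c-kit/HRP immunodetection at 450 nm.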

T1 sequence (P16234 24-1089): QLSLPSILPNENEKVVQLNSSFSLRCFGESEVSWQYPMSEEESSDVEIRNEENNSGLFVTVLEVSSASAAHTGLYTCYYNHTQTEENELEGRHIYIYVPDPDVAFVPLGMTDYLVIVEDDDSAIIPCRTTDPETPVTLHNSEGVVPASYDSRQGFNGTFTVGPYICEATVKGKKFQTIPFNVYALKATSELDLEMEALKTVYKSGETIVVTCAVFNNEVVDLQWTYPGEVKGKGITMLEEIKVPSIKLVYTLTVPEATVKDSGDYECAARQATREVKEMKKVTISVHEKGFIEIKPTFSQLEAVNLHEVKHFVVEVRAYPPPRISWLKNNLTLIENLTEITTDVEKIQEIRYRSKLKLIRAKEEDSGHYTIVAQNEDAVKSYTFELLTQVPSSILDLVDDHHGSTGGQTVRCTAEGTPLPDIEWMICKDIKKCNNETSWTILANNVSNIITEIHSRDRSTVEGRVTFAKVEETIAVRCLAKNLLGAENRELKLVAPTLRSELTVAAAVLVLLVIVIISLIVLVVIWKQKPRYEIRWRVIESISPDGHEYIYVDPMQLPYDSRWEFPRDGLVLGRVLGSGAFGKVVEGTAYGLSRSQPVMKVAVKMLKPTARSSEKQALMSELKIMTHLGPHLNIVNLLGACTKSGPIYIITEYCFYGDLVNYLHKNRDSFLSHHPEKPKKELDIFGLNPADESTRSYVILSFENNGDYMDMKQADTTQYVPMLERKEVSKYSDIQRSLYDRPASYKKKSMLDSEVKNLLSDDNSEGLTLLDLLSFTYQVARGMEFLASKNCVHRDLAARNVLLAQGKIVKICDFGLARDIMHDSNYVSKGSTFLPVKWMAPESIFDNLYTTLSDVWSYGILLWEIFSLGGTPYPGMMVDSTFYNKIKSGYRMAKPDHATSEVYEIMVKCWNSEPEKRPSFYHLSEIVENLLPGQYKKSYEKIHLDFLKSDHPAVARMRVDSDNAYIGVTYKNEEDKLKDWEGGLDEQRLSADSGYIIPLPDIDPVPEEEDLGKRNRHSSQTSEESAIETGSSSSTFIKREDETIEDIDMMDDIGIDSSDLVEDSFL

Consider `COc1cc2ncnc(Oc3ccc(NC(=O)OC(C)c4cccc(C(F)(F)F)c4)c(Cl)c3)c2cc1OC` (stereo not drawn) [Example 91, 1-[3-(Trifluoromethyl)phenyl]ethyl N-{2-chloro-4-[(6,7-dimethoxy-4-quinazolinyl)oxy]phenyl}carbamate], for which the IC50 in assay [1] was determined as 14 nM. The inhibition at 1 µM in assay [2] worked out at 20%.

On to `COc1cc2nccc(Oc3ccc(NC(=O)OC(C)c4cc(F)c(F)cc4F)cc3)c2cc1OC` (stereo not drawn) [Example 92, 1-(2,4,5-Trifluorophenyl)ethyl N-{4-[(6 7-dimethoxy-4-quinolyl)oxy]phenyl}carbamate], for which the values for the IC50 in assay [1] and in assay [2] were under 10 nM and 677 nM, respectively.

For `COc1cc2nccc(Oc3ccc(NC(=O)OC(C)c4cc(F)c(F)cc4F)c(C)c3C)c2cc1OC` (stereo not drawn) [Example 93, 1-(2,4,5-Trifluorophenyl)ethyl N-{4-[(6,7-dimethoxy-4-quinolyl)oxy]-2,3-dimethylphenyl}carbamate], the half-inhibitory concentration (IC50) worked out at 17 nM in assay [1] and 601 nM in assay [2].

As for `COc1cc2nccc(Oc3cc(C)c(NC(=O)OC(C)c4cc(F)c(F)cc4F)cc3C)c2cc1OC` (stereo not drawn) [Example 94, 1-(2,4,5-Trifluorophenyl)ethyl N-{4-[(6,7-dimethoxy-4-quinolyl)oxy]-2,5-dimethylphenyl}carbamate], the IC50 in assay [1] is 31 nM. The inhibition at 1 µM in assay [2] worked out at 31%.

For `COc1cc2ncnc(Oc3ccc(NC(=O)OC(C)c4cc(F)c(F)cc4F)cc3)c2cc1OC` (stereo not drawn) [Example 95, 1-(2,4,5-Trifluorophenyl)ethyl N-{4-[(6,7-dimethoxy-4-quinazolinyl)oxy]phenyl}carbamate], the results for the IC50 in assay [1] and in assay [2] were 16 nM and 962 nM, respectively.

In the case of `COc1cc2ncnc(Oc3ccc(NC(=O)OC(C)c4cc(F)c(F)cc4F)c(Cl)c3)c2cc1OC` (stereo not drawn) [Example 96, 1-(2,4,5-Trifluorophenyl)ethyl N-{2-chloro-4-[(6,7-dimethoxy-4-quinazolinyl)oxy]phenyl}carbamate], the concentration for half-maximal inhibition (IC50) in assay [1] is 38 nM. The inhibition at 1 µM in assay [2] amounted to 13%.

In the case of `COc1cc2nccc(Oc3ccc(NC(=O)OC(C)c4cccc(F)c4)cc3)c2cc1OC` (stereo not drawn) [Example 97, 1-(3-Fluorophenyl)ethyl N-{4-[(6,7-dimethoxy-4-quinolyl)oxy]phenyl}carbamate], the IC50 in assay [1] is under 10 nM; in assay [2], 254 nM.

With `COc1cc2nccc(Oc3ccc(NC(=O)OC(C)c4cccc(F)c4)c(C)c3C)c2cc1OC` (stereo not drawn) [Example 98, 1-(3-Fluorophenyl)ethyl N-{4-[(6,7-dimethoxy-4-quinolyl)oxy]-2,3-dimethylphenyl}carbamate], the half-inhibitory concentration (IC50) in assay [1] is under 10 nM; in assay [2], 152 nM.

On to `COc1cc2nccc(Oc3cc(C)c(NC(=O)OC(C)c4cccc(F)c4)cc3C)c2cc1OC` (stereo not drawn) [Example 99, 1-(3-Fluorophenyl)ethyl N-{4-[(6,7-dimethoxy-4-quinolyl)oxy]-2,5-dimethylphenyl}carbamate], for which the IC50 in assay [1] turned out to be 21 nM; in assay [2], 394 nM.

As for `COc1cc2ncnc(Oc3ccc(NC(=O)OC(C)c4cccc(F)c4)cc3)c2cc1OC` (stereo not drawn) [Example 100, 1-(3-Fluorophenyl)ethyl N-{4-[(6,7-dimethoxy-4-quinazolinyl)oxy]phenyl}carbamate], the IC50 in assay [1] turned out to be 14 nM; in assay [2], 815 nM.

Take `COc1cc2ncnc(Oc3ccc(NC(=O)OC(C)c4cccc(F)c4)c(Cl)c3)c2cc1OC` (stereo not drawn) [Example 101, 1-(3-Fluorophenyl)ethyl N-{2-chloro-4-[(6,7-dimethoxy-4-quinazolinyl)oxy]phenyl}carbamate]: the IC50 in assay [1] was found to be 12 nM. Also, in assay [2], the inhibition at 1 µM was 27%.

In the case of `COc1cc2nccc(Oc3ccc(NC(=O)OC(C)c4ccc(F)cc4)cc3)c2cc1OC` (stereo not drawn) [Example 102, 1-(4-Fluorophenyl)ethyl N-{4-[(6,7-dimethoxy-4-quinolyl)oxy]phenyl}carbamate], the results for the half-maximal inhibitory concentration (IC50) in assay [1] and in assay [2] were under 10 nM and 217 nM, respectively.

As for `COc1cc2nccc(Oc3ccc(NC(=O)OC(C)c4ccc(F)cc4)c(C)c3C)c2cc1OC` (stereo not drawn) [Example 103, 1-(4-Fluorophenyl)ethyl N-{4-[(6,7-dimethoxy-4-quinolyl)oxy]-2,3-dimethylphenyl}carbamate], the half-maximal inhibitory concentration (IC50) is 15 nM in assay [1] and 200 nM in assay [2].

In the case of `COc1cc2nccc(Oc3cc(C)c(NC(=O)OC(C)c4ccc(F)cc4)cc3C)c2cc1OC` (stereo not drawn) [Example 104, 1-(4-Fluorophenyl)ethyl N-{4-[(6,7-dimethoxy-4-quinolyl)oxy]-2,5-dimethylphenyl}carbamate], the IC50 in assay [1] is 25 nM; in assay [2], 590 nM.

On to `COc1cc2ncnc(Oc3ccc(NC(=O)OC(C)c4ccc(F)cc4)cc3)c2cc1OC` (stereo not drawn) [Example 105, 1-(4-Fluorophenyl)ethyl N-{4-[(6,7-dimethoxy-4-quinazolinyl)oxy]phenyl}carbamate], for which the IC50 in assay [1] is under 10 nM; in assay [2], 252 nM.

`COc1cc2nccc(Oc3ccc(NC(=O)OC(C)c4ccccc4Br)cc3)c2cc1OC` (stereo not drawn) [Example 112, 1-(2-Bromophenyl)ethyl N-{4-[(6,7-dimethoxy-4-quinolyl)oxy]phenyl}carbamate]: the IC50 worked out at 16 nM in assay [1] and 214 nM in assay [2].

`COc1cc2nccc(Oc3ccc(NC(=O)OC(C)c4ccccc4Br)c(C)c3C)c2cc1OC` (stereo not drawn) [Example 113, 1-(2-Bromophenyl)ethyl N-{4-[(6,7-dimethoxy-4-quinolyl)oxy]-2,3-dimethylphenyl}carbamate]: the half-inhibitory concentration (IC50) worked out at 18 nM in assay [1] and 402 nM in assay [2].

With `COc1cc2nccc(Oc3cc(C)c(NC(=O)OC(C)c4ccccc4Br)cc3C)c2cc1OC` (stereo not drawn) [Example 114, 1-(2-Bromophenyl)ethyl N-{4-[(6,7-dimethoxy-4-quinolyl)oxy]-2,5-dimethylphenyl}carbamate], the values for the 50% inhibitory concentration (IC50) in assay [1] and in assay [2] were 65 nM and 602 nM, respectively.

For the molecule `COc1cc2ncnc(Oc3ccc(NC(=O)OC(C)c4ccccc4Br)cc3)c2cc1OC` (stereo not drawn) [Example 115, 1-(2-Bromophenyl)ethyl N-{4-[(6,7-dimethoxy-4-quinazolinyl)oxy]phenyl}carbamate], the IC50 in assay [1] is under 10 nM; in assay [2] it was 387 nM.

Take `COc1cc2nccc(Oc3ccc(NC(=O)OC(C)c4cccc(Br)c4)cc3)c2cc1OC` (stereo not drawn) [Example 117, 1-(3-Bromophenyl)ethyl N-{4-[(6,7-dimethoxy-4-quinolyl)oxy]phenyl}carbamate]: the results for the IC50 in assay [1] and in assay [2] were 26 nM and 759 nM, respectively.

Turning to `COc1cc2nccc(Oc3ccc(NC(=O)OC(C)c4cccc(Br)c4)c(C)c3C)c2cc1OC` (stereo not drawn) [Example 118, 1-(3-Bromophenyl)ethyl N-{4-[(6,7-dimethoxy-4-quinolyl)oxy]-2,3-dimethylphenyl}carbamate], the results for the IC50 in assay [1] and in assay [2] were 33 nM and 746 nM, respectively.

In the case of `COc1cc2nccc(Oc3cc(C)c(NC(=O)OC(C)c4cccc(Br)c4)cc3C)c2cc1OC` (stereo not drawn) [Example 119, 1-(3-Bromophenyl)ethyl N-{4-[(6,7-dimethoxy-4-quinolyl)oxy]-2,5-dimethylphenyl}carbamate], the IC50 in assay [1] is over 100 nM. Besides, the inhibition at 1 µM in assay [2] came to 31%.

As for `COc1cc2ncnc(Oc3ccc(NC(=O)OC(C)c4cccc(Br)c4)cc3)c2cc1OC` (stereo not drawn) [Example 120, 1-(3-Bromophenyl)ethyl N-{4-[(6,7-dimethoxy-4-quinazolinyl)oxy]phenyl}carbamate], the values for the IC50 in assay [1] and in assay [2] were 13 nM and 505 nM, respectively.

On to `COc1cc2ncnc(Oc3ccc(NC(=O)OC(C)c4cccc(Br)c4)c(Cl)c3)c2cc1OC` (stereo not drawn) [Example 121, 1-(3-Bromophenyl)ethyl N-{2-chloro-4-[(6,7-dimethoxy-4-quinazolinyl)oxy]phenyl}carbamate], for which, in assay [1], the IC50 was found to be 48 nM. The inhibition at 1 µM in assay [2] is 17%.

For the molecule `COc1cc2nccc(Oc3ccc(NC(=O)OC(C)c4ccccc4F)cc3)c2cc1OC` (stereo not drawn) [Example 122, 1-(2-Fluorophenyl)ethyl N-{4-[(6,7-dimethoxy-4-quinolyl)oxy]phenyl}carbamate], the figures for the 50% inhibitory concentration (IC50) in assay [1] and in assay [2] were 11 nM and 821 nM, respectively.

`COc1cc2nccc(Oc3ccc(NC(=O)OC(C)c4ccccc4F)c(C)c3C)c2cc1OC` (stereo not drawn) [Example 123, 1-(2-Fluorophenyl)ethyl N-{4-[(6,7-dimethoxy-4-quinolyl)oxy]-2,3-dimethylphenyl}carbamate]: the IC50 in assay [1] was under 10 nM; in assay [2] it was 207 nM.

In the case of `COc1cc2nccc(Oc3cc(C)c(NC(=O)OC(C)c4ccccc4F)cc3C)c2cc1OC` (stereo not drawn) [Example 124, 1-(2-Fluorophenyl)ethyl N-{4-[(6,7-dimethoxy-4-quinolyl)oxy]-2,5-dimethylphenyl}carbamate], in assay [1], the IC50 was found to be 42 nM. The inhibition at 1 µM in assay [2] was found to be 39%.

Consider `COc1cc2ncnc(Oc3ccc(NC(=O)OC(C)c4ccccc4F)cc3)c2cc1OC` (stereo not drawn) [Example 125], for which the IC50 is under 10 nM in assay [1] and 671 nM in assay [2].

`COc1cc2ncnc(Oc3ccc(NC(=O)OC(C)c4ccccc4F)c(Cl)c3)c2cc1OC` (stereo not drawn) [Example 126, 1-(2-Fluorophenyl)ethyl N-{2-chloro-4-[(6,7-dimethoxy-4-quinazolinyl)oxy]phenyl}carbamate]: the half-maximal inhibitory concentration (IC50) in assay [1] was determined as 19 nM. In addition, the inhibition at 1 µM in assay [2] was found to be 10%.

Regarding `CCOc1ccccc1C(C)OC(=O)Nc1ccc(Oc2ccnc3cc(OC)c(OC)cc23)cc1` (stereo not drawn) [Example 127, 1-(2-Ethoxyphenyl)ethyl N-{4-[(6,7-dimethoxy-4-quinolyl)oxy]phenyl}carbamate], the IC50 in assay [1] was 16 nM; in assay [2], 283 nM.
